Laboratory results as given in ChEMBL document CHEMBL1201862, “PubChem BioAssay data set” (2004).
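Protocol summary: plate cells (96-well), add compound at 5 concentrations, incubate 48 h, interpolate endpoints linearly. GI50 = concentration required for 50% inhibition of growth.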 Calls of active or inactive are those of the source. Rule as the data show it: active = GI50 up to about 1.1 µM and inactive = higher.

What was measured:
Experiment in all cases: NCI-60 cell line screen, 48 h
[1] = test system: SF-268
[2] = test system: ACHN
[3] = test system: RXF 393
[4] = test system: CCRF-CEM
[5] = test system: SNB-19
[6] = test system: OVCAR-3
[7] = test system: OVCAR-8
[8] = test system: Malme-3M
[9] = test system: SF-539
[10] = test system: HCC 2998
[11] = test system: A549
[12] = test system: NCI-H460
[13] = test system: SK-MEL-28
[14] = test system: IGROV-1
[15] = test system: KM12
[16] = test system: 786-0
[17] = test system: HCT-116
[18] = test system: UACC-62
[19] = test system: LXFL 529
[20] = test system: HOP-18
[21] = test system: M14
[22] = test system: DLD-1
[23] = test system: SK-MEL-5
[24] = test system: SN12C
[25] = test system: UO-31
[26] = test system: SNB-78
[27] = test system: MOLT-4
[28] = test system: SW-620
[29] = test system: HL-60
[30] = test system: HOP-92
[31] = test system: UACC-257
[32] = test system: KM-20L2
[33] = test system: EKVX
[34] = test system: TK-10
[35] = test system: HCT-15
[36] = test system: NCI-H522
[37] = test system: U-251
[38] = test system: SK-OV-3
[39] = test system: HT-29
[40] = test system: HOP-62
[41] = test system: NCI-H23
[42] = test system: M19-MEL
[43] = test system: SF-295
[44] = test system: OVCAR-4
[45] = test system: A498
[46] = test system: RPMI-8226
[47] = test system: LOX IMVI
[48] = test system: OVCAR-5
[49] = test system: CAKI-1
[50] = test system: NCI-H226
[51] = test system: SNB-75
[52] = test system: COLO 205
[53] = test system: K562
[54] = test system: SR
[55] = test system: SK-MEL-2
[56] = test system: DMS-273
[57] = test system: DMS-114

CC1(C)COC2C(N(Cc3ccccc3)Cc3ccccc3)C(=O)N21 (configuration not stated)
GI50 [1]: 25.2 µM (inactive) | GI50 [2]: 35.6 µM (inactive) | GI50 [3]: 19.3 µM (inactive) | GI50 [4]: 32.7 µM (inactive) | GI50 [5]: 24 µM (inactive) | GI50 [6]: 30.5 µM (inactive) | GI50 [7]: 32.1 µM (inactive) | GI50 [8]: 38.6 µM (inactive) | GI50 [9]: 25.9 µM (inactive) | GI50 [10]: 41.7 µM (inactive) | GI50 [11]: 32.6 µM (inactive) | GI50 [12]: 39.7 µM (inactive) | GI50 [13]: 42.3 µM (inactive) | GI50 [14]: 41.9 µM (inactive) | GI50 [15]: 37.8 µM (inactive) | GI50 [16]: 31 µM (inactive) | GI50 [17]: 33.4 µM (inactive) | GI50 [18]: 25.1 µM (inactive) | GI50 [19]: 51.3 µM (inactive) | GI50 [20]: 50 µM (inactive) | GI50 [21]: 23.1 µM (inactive) | GI50 [22]: 50 µM (inactive) | GI50 [23]: 37.2 µM (inactive) | GI50 [24]: 47.3 µM (inactive) | GI50 [25]: 64.3 µM (inactive) | GI50 [26]: 42.6 µM (inactive) | GI50 [27]: 25.9 µM (inactive) | GI50 [28]: 35.9 µM (inactive) | GI50 [29]: 22.3 µM (inactive) | GI50 [30]: 29.3 µM (inactive) | GI50 [31]: 98.6 µM (inactive) | GI50 [32]: 37.1 µM (inactive) | GI50 [33]: 73.1 µM (inactive) | GI50 [34]: 37.2 µM (inactive) | GI50 [35]: 39.6 µM | GI50 [36]: 19.4 µM (inactive) | GI50 [37]: 26.3 µM (inactive) | GI50 [38]: 24.9 µM (inactive) | GI50 [39]: 31.8 µM (inactive) | GI50 [40]: 36.9 µM (inactive) | GI50 [41]: 34.3 µM (inactive) | GI50 [42]: 73.8 µM (inactive) | GI50 [43]: 32.1 µM (inactive) | GI50 [44]: 27.9 µM (inactive) | GI50 [45]: 48.8 µM (inactive) | GI50 [46]: 20.9 µM (inactive) | GI50 [47]: 46.6 µM (inactive) | GI50 [48]: > 100 µM (inactive) | GI50 [49]: 39.2 µM (inactive) | GI50 [50]: 47.2 µM (inactive) | GI50 [51]: 20 µM (inactive) | GI50 [52]: 25.1 µM (inactive) | GI50 [53]: 27.9 µM (inactive) | GI50 [54]: 19.1 µM (inactive)

CCCCCNC(=O)C1C(=O)N(CCCCC)C(=O)/C1=N\N (configuration not stated)
GI50 [1]: 63.8 µM (inactive) | GI50 [2]: 59.8 µM (inactive) | GI50 [4]: 49.2 µM (inactive) | GI50 [5]: 35.2 µM (inactive) | GI50 [6]: 46.8 µM (inactive) | GI50 [7]: 49.2 µM (inactive) | GI50 [8]: > 100 µM (inactive) | GI50 [9]: 59.4 µM (inactive) | GI50 [10]: 35.3 µM (inactive) | GI50 [11]: 77.6 µM (inactive) | GI50 [12]: 78.5 µM (inactive) | GI50 [13]: 62.8 µM (inactive) | GI50 [14]: 53 µM (inactive) | GI50 [15]: 53.2 µM (inactive) | GI50 [16]: > 100 µM (inactive) | GI50 [18]: 43.5 µM (inactive) | GI50 [19]: 41.2 µM (inactive) | GI50 [20]: 50 µM (inactive) | GI50 [21]: 57.9 µM (inactive) | GI50 [22]: 70.6 µM (inactive) | GI50 [55]: 35.2 µM (inactive) | GI50 [23]: 29 µM (inactive) | GI50 [24]: 54.2 µM (inactive) | GI50 [25]: 26.8 µM (inactive) | GI50 [26]: 23.6 µM (inactive) | GI50 [27]: 40.8 µM (inactive) | GI50 [28]: 79.3 µM (inactive) | GI50 [29]: > 100 µM (inactive) | GI50 [30]: 37.8 µM (inactive) | GI50 [31]: > 100 µM (inactive) | GI50 [32]: 48.6 µM (inactive) | GI50 [33]: 86.7 µM (inactive) | GI50 [34]: > 100 µM (inactive) | GI50 [35]: 59.2 µM | GI50 [36]: 31.6 µM (inactive) | GI50 [37]: 30.1 µM (inactive) | GI50 [39]: 83.8 µM (inactive) | GI50 [40]: 35.5 µM (inactive) | GI50 [41]: 47.5 µM (inactive) | GI50 [42]: 86.5 µM (inactive) | GI50 [43]: 30.5 µM (inactive) | GI50 [44]: 61.8 µM (inactive) | GI50 [45]: > 100 µM (inactive) | GI50 [48]: > 100 µM (inactive) | GI50 [52]: > 100 µM (inactive) | GI50 [53]: 34.4 µM (inactive)

Cc1ccc(C(=O)C#Cc2cnc(O)nc2O)cc1
GI50 [1]: 13.1 µM (inactive) | GI50 [2]: 15.6 µM (inactive) | GI50 [3]: 2.99 µM (inactive) | GI50 [4]: 3.44 µM (inactive) | GI50 [5]: 18.2 µM (inactive) | GI50 [6]: 13.5 µM (inactive) | GI50 [7]: 12.4 µM (inactive) | GI50 [8]: 5.56 µM (inactive) | GI50 [9]: 4.09 µM (inactive) | GI50 [10]: 12.7 µM (inactive) | GI50 [56]: 16.1 µM (inactive) | GI50 [11]: 18.3 µM (inactive) | GI50 [12]: 16.7 µM (inactive) | GI50 [13]: 16.9 µM (inactive) | GI50 [14]: 16.7 µM (inactive) | GI50 [15]: 14.7 µM (inactive) | GI50 [16]: 13.4 µM (inactive) | GI50 [17]: 5.94 µM (inactive) | GI50 [18]: 10.2 µM (inactive) | GI50 [20]: 18.6 µM (inactive) | GI50 [21]: 13.2 µM (inactive) | GI50 [22]: 10.3 µM (inactive) | GI50 [55]: 14.4 µM (inactive) | GI50 [23]: 13.6 µM (inactive) | GI50 [24]: 4.55 µM (inactive) | GI50 [25]: 17.4 µM (inactive) | GI50 [26]: 11.9 µM (inactive) | GI50 [27]: 3.41 µM (inactive) | GI50 [28]: 8.69 µM (inactive) | GI50 [29]: 11.5 µM (inactive) | GI50 [30]: 18.6 µM (inactive) | GI50 [31]: 14.2 µM (inactive) | GI50 [33]: 17.2 µM (inactive) | GI50 [34]: 18 µM (inactive) | GI50 [35]: 13.8 µM | GI50 [37]: 12.9 µM (inactive) | GI50 [38]: 25.2 µM (inactive) | GI50 [39]: 21.5 µM (inactive) | GI50 [40]: 29.3 µM (inactive) | GI50 [41]: 17.5 µM (inactive) | GI50 [42]: 14.7 µM (inactive) | GI50 [43]: 29.2 µM (inactive) | GI50 [44]: 21.8 µM (inactive) | GI50 [45]: 14.7 µM (inactive) | GI50 [47]: 3.92 µM (inactive) | GI50 [48]: 18.9 µM (inactive) | GI50 [49]: 16.9 µM (inactive) | GI50 [50]: 17.4 µM (inactive) | GI50 [51]: 19.1 µM (inactive) | GI50 [52]: 13 µM (inactive) | GI50 [53]: 6.07 µM (inactive)

COc1ccc(NC(=O)CC(=O)N/N=C(\C)c2cc3ccccc3oc2=O)cc1
GI50 [2]: > 100 µM (inactive) | GI50 [3]: > 100 µM (inactive) | GI50 [4]: > 100 µM (inactive) | GI50 [5]: > 100 µM (inactive) | GI50 [6]: > 100 µM (inactive) | GI50 [7]: > 100 µM (inactive) | GI50 [8]: > 100 µM (inactive) | GI50 [9]: > 100 µM (inactive) | GI50 [56]: > 100 µM (inactive) | GI50 [11]: > 100 µM (inactive) | GI50 [12]: > 100 µM (inactive) | GI50 [13]: > 100 µM (inactive) | GI50 [14]: > 100 µM (inactive) | GI50 [15]: > 100 µM (inactive) | GI50 [16]: > 100 µM (inactive) | GI50 [17]: > 100 µM (inactive) | GI50 [18]: > 100 µM (inactive) | GI50 [20]: 80.5 µM (inactive) | GI50 [21]: > 100 µM (inactive) | GI50 [22]: > 100 µM (inactive) | GI50 [23]: > 100 µM (inactive) | GI50 [24]: > 100 µM (inactive) | GI50 [25]: > 100 µM (inactive) | GI50 [27]: > 100 µM (inactive) | GI50 [28]: > 100 µM (inactive) | GI50 [29]: > 100 µM (inactive) | GI50 [31]: 89.9 µM (inactive) | GI50 [32]: > 100 µM (inactive) | GI50 [33]: > 100 µM (inactive) | GI50 [34]: > 100 µM (inactive) | GI50 [35]: > 100 µM | GI50 [36]: > 100 µM (inactive) | GI50 [37]: > 100 µM (inactive) | GI50 [57]: > 100 µM (inactive) | GI50 [38]: > 100 µM (inactive) | GI50 [39]: > 100 µM (inactive) | GI50 [40]: > 100 µM (inactive) | GI50 [41]: > 100 µM (inactive) | GI50 [42]: > 100 µM (inactive) | GI50 [43]: > 100 µM (inactive) | GI50 [46]: > 100 µM (inactive) | GI50 [47]: > 100 µM (inactive) | GI50 [50]: > 100 µM (inactive) | GI50 [51]: > 100 µM (inactive) | GI50 [52]: > 100 µM (inactive) | GI50 [53]: > 100 µM (inactive)
